Results taken from patent publication US20250129009A1, “Compound and Method for Identifying Impurities Included Therein” (LG CHEM, LTD., priority 2022, published 2025).

Assay: Measurement of turbidity by UV/Vis spectroscopy (Method 1)
Format: physicochemical
Settings: 20 wt % aqueous solution; for Absorbance: light at 290 nm, 1 mm cuvette, DI water reference
Procedure: A 20 wt % aqueous solution of the compound is analyzed by UV/Vis spectroscopy to measure the absorbance Abs to light at a wavelength of 290 nm, and the turbidity Tb is derived from the measured absorbance Abs by the following Equation 1.
A 20 wt % aqueous solution of the compound is analyzed by UV/Vis spectroscopy to measure the absorbance Abs to light at a wavelength of 290 nm, and a turbidity Tb is derived from the measured absorbance Abs by the following Equation 1.
The absorbance of light at a wavelength of 290 nm is confirmed by analyzing 5 types of turbidity standard solutions (0, 1, 10, 100, and 1000 NTU, respectively) by UV/Vis spectroscopy (using Agilent 8453, 200 to 1100 nm, resolution 2 nm, 1 mm cuvette). In this case, an empty cuvette cell is used as a reference for measurement. A calibration curve (Equation 1) is derived from the absorbance according to the 0 NTU to 1,000 NTU interval. (NTU: Nephelometric Turbidity Unit, water quality standard 1 NTU)
UV/Vis was measured for Samples 1 to 7 prepared in Preparation Example B above using Method 1 of the present disclosure, and the results are illustrated in FIG. 1. Further, values obtained by converting the measured absorbance (Abs) into turbidity using the following Equation 1 are shown in the following Table 1.
500 mg of each of Samples 1 to 7 were put into a vial, a 20 wt % aqueous solution was prepared using distilled water (DI water), and then UV/Vis spectroscopy (using Agilent 8453, 200 to 1100 nm, resolution 2 nm, 1 mm cuvette) was analyzed to confirm the absorbance of light at a wavelength of 290 nm. In this case, DI water was used as a reference for measurement.
The absorbance of light at a wavelength of 290 nm was confirmed by analyzing 5 types of turbidity standard solutions (0, 1, 10, 100, and 1000 NTU, respectively) by UV/Vis spectroscopy (using Agilent 8453, 200 to 1100 nm, resolution 2 nm, 1 mm cuvette). In this case, an empty cuvette cell was used as a reference for measurement.
A calibration curve (Equation 1) was derived from the absorbance according to the 0 NTU to 1,000 NTU interval. (NTU: Nephelometric Turbidity Unit, water quality standard 1 NTU)
Turbidity was derived by introducing the absorbance of Samples 1 to 7 confirmed in 1) above into Equation 1.

SMILES | Absorbance | Turbidity (converted from absorbance at 290 nm by Equation 1 (calibration 0 to 1,000 NTU standards))
C=CC(=O)OCC[N+](CCCC)(CCCC)CCCCCCCCCCCC [Sample 2] | 0.1615 | 
C=CC(=O)OCC[N+](CCCC)(CCCC)CCCCCCCCCCCC [Sample 5] | 0.2796 | 74
C=CC(=O)OCC[N+](CCCC)(CCCC)CCCCCCCCCCCC [Sample 3] | 0.3459 | 
